US20170360863A1, “USE OF POLYACETYLENIC GLYCOSIDES FOR SUPPRESSION OF GRANULOCYTIC MYELOID-DERIVED SUPPRESSOR CELL ACTIVITIES AND TUMOR METASTASIS” (Academia Sinica, priority 2014, published 2017)

Legend:
[1] = system: 4T1-luc2 tumor metastasis; test: 4T1-luc2 tumor resection model, tumor metastasis; assay type: in vivo, BALB/c mice; details: 23 days post tumor resection
Protocol: 4T1-luc2 cells (5×10^5 cells/100 μl PBS) were orthotopically implanted into mammary fat-pad of BALB/c mice. Primary tumor growth was evaluated by measuring tumor weight and by monitoring bioluminescent imaging of mammary tumors (BL1) every 7 days. For tumor resection mouse model, 4T1-luc2 cells (5×10^5 cells/100 μl PBS) were orthotopically implanted into mammary fat pad of test mice. At day 21 post tumor implantation, the tumor mass was gently surgically removed. Bioluminescent imaging of metastatic tumor was monitored by using Non-invasive in vivo imaging system (IVIS). The body weight of the test mouse was approximately 25 g.
For this experiment, at 21 days post orthotopic tumor implantation, the tissue mass of 4T1-luc2 tumors in test mice was surgically removed.
At 21 days post implantation, the tumor mass was surgically removed gently. Following surgery, each treatment group was randomly divided into control, F1 and the docetaxel groups (i.e., via iv injection with 10 mg docetaxel/kg every other 3 days). […] The BLI values for each mouse was quantitatively measured and pooled for each test group.
(§1) Mice were sacrificed at 23 days post tumor resection, lung, liver and spleen of test mice were excised and tumor metastasis measured by bioluminescent imaging.

[2] = system: granulocytic and monocytic MDSCs; test: MDSC populations in organs of tumor-resected mice (flow cytometry); assay type: in vivo, BALB/c mice; details: 23 days post tumor resection
From the text: Lung tissues of test mice were harvested and minced with 150 U/mL Type I Collagenase in tissue grinders for 20 to 50 times. After digestion and lysed with ACK buffer, grinded tissues were collected and filtered through 40 μm cell strainer. Spleen tissues were minced gently with PBS in tissue grinders. After lysed with ACK buffer, cells were collected for further analysis. Blood were lysed with ACK buffer for 3 times and harvested for further analysis. All cells were collected and stained with anti-CD11b, and anti-Ly6G/Ly-6C for flow cytometry analysis.
The myeloid derived suppressor cell (MDSC) populations in spleen tissue of each test group were investigated.
as §1

CC(=O)O[C@@]12CO[C@@H]1C[C@H](O)[C@@]1(C)C(=O)[C@H](O)C3=C(C)[C@@H](OC(=O)[C@H](O)[C@@H](NC(=O)OC(C)(C)C)c4ccccc4)C[C@@](O)([C@@H](OC(=O)c4ccccc4)[C@H]21)C3(C)C [docetaxel]
tumor metastasis into lung (bioluminescent imaging of excised organs) [1]: effectively inhibited | BLI value (bioluminescent imaging, whole body) ([1]; BP-E-F1 oral 5 mg/kg/day, docetaxel iv 10 mg/kg every other 3 days): effectively reduce | metastasis rate ([1]; F1 oral 5 mg/kg/day, docetaxel iv 10 mg/kg every other 3 days): 12.5% | 4T1 tumor-induced accumulation of granulocytic MDSCs in lung, peripheral blood and spleen [2]: significantly reduced
